Assay results taken from patent US6136825A, “Sulfonamide compounds having 5-HT receptor activity” (Knoll Aktiengesellschaft, priority 1996, dated 2000).

Legend:
[1] = target: T1, D2-like dopamine receptors (Rattus norvegicus, UniProt P61169); test: inhibition of tritiated (S)-sulpiride binding to D2-like dopamine receptors, rat striatal tissue; set-up: species or system male Charles River CD rats; settings: for Ki: 4° C., 40 minutes, pH 7.7
T1 construct: Striatal tissue from the brains of male Charles River CD rats; from tissue; host or cells: rat striatum (male Charles River CD rats), crude membrane pellet
Protocol: Striatal tissue from the brains of male Charles River CD rats weighing between 140-250 g were homogenised in ice-cold 50 mM Tris-HCl buffer (pH 7.7 when measured at 25° C.) and centrifuged at 40,000 g for 10 minutes. The pellet was resuspended in Tris salts buffer (50 mM Tris-HCl buffer containing 120 mM NaCl, 5 mM KCl, 2 mM CaCl2 and 1 mM MgCl2 with the addition of 6 mM ascorbic acid; pH 7.7 when measured at 25° C.), and again centrifuged at 40,000 g for 10 minutes. The final pellet was stored at -80° C. Before each test the pellet was resuspended in Tris salts buffer (equivalent to 2 mg wet weight of tissue/ml). Aliquots (720 μl; equivalent to 1.44 mg wet weight of tissue/tube) of this suspension were then added to tubes containing the ligand (40 μl; 1 nM) and Tris salts buffer (40 μl; total binding) or spiroperidol (40 μl; 10 nM; non-specific binding) or test compound (40 μl; at a single concentration of 10^-6 M or at 6 concentrations ranging from 10^-11 -10^-4 M). The ligand was tritiated (S)-sulpiride and the mixture was incubated at 4° C. for 40 minutes before the incubation was terminated by rapid filtration.
The filters were washed with ice-cold Tris-HCl buffer and dried. The filters were punched out in to vials, scintillation fluid added and were left for about 20 hours before being counted by scintillation spectrophotometry. The percentage displacement of specific binding of the tritiated ligand was calculated for the single concentration (10^-6 M) of test compound. Displacement curves were then produced over a range of concentrations for those compounds which displaced ≥50% of specific binding of the tritiated ligand at 10^-6 M. The concentration which gave a 50% inhibition of specific binding (IC50) was obtained from the curve. The inhibition coefficient Ki was then calculated using the formula [formula] in which [ligand] is the concentration of the tritiated ligand used and KD is the equilibrium dissociation constant for the ligand.

5-HT1A = target: T2, 5-HT1A (Rattus norvegicus, UniProt P19327); test: inhibition of tritiated ligand ([3H]8-OH-DPAT) binding to 5-HT1A receptors, rat hippocampal tissue; set-up: species or system male Charles River CD rats; settings: for inhibition at 1 µM: at 10^-6 M, read-out: % displacement of specific binding, 5-HT1A; for Ki: 25° C., 30 minutes, pH 7.7
T2 construct: Hippocampal tissue from the brains of male Charles River CD rats; from tissue; host or cells: rat hippocampus (male Charles River CD rats), crude membrane pellet
T2 sequence (P19327 1-422): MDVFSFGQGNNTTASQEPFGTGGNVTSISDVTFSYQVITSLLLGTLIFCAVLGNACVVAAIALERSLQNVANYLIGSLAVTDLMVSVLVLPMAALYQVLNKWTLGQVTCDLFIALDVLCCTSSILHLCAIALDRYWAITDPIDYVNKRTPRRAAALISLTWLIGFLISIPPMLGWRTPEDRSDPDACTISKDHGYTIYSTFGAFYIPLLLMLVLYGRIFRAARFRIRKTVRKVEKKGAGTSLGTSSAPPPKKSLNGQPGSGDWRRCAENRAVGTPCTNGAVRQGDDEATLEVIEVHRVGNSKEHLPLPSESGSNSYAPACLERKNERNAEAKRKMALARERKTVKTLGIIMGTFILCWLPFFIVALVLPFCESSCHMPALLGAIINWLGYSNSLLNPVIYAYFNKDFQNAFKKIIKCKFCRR
Protocol: Hippocampal tissue from the brains of male Charles River CD rats weighing between 150-250 g were homogenised in ice-cold 50 mM Tris-HCl buffer (pH 7.7) when measured at 25° C., 1:40 w/v) and centrifuged at 30,000 g at 4° C. for 10 minutes. The pellet was rehomogenised in the same buffer, incubated at 37° C. for 10 minutes and centrifuged at 30,000 g at 4° C. for 10 minutes. The final pellet was resuspended in 50 mM Tris-HCl buffer (pH 7.7) containing 4 mM CaCl2, 0.1% L-ascorbic acid and 10 μM pargyline hydrochloride (equivalent to 6.25 mg wet weight of tissue/ml) and used immediately in the binding assay. Aliquots (400 μl; equivalent to 2.5 mg wet weight of tissue/tube) of this suspension were added to tubes containing the ligand (50 μl; 2 nM) and distilled water (50 μl; total binding) or 5-HT (50 μl; 10 μM; non-specific binding) or test compound (50 μl; at a single concentration of 10^-6 M or at 10 concentrations ranging from 10^-11 -10^-3 M). The ligand was [^3 H]8-hydroxy-2-(dipropylamino)tetralin ([^3 H]8-OH-DPAT) and the mixture was incubated at 25° C. for 30 minutes before the incubation was terminated by rapid filtration.
The filters were washed with ice-cold Tris-HCl buffer and dried. The filters were punched out into vials, scintillation fluid added and radioactivity determined by liquid scintillation counting. The percentage displacement of specific binding of the tritiated ligand was calculated for the single concentration (10^-6 M) of test compound. Displacement curves were then produced for those compounds which displaced ≥50% of specific binding of the tritiated ligand at 10^-6 M using a range of concentrations of the compound. The concentration which gave 50% inhibition of specific binding (IC50) was obtained from the curve. The inhibition coefficient Ki was then calculated using the formula [formula] in which [ligand] is the concentration of the tritiated ligand used and KD Is the equilibrium dissociation constant for the ligand.

T1 sequence (P61169 whole entry): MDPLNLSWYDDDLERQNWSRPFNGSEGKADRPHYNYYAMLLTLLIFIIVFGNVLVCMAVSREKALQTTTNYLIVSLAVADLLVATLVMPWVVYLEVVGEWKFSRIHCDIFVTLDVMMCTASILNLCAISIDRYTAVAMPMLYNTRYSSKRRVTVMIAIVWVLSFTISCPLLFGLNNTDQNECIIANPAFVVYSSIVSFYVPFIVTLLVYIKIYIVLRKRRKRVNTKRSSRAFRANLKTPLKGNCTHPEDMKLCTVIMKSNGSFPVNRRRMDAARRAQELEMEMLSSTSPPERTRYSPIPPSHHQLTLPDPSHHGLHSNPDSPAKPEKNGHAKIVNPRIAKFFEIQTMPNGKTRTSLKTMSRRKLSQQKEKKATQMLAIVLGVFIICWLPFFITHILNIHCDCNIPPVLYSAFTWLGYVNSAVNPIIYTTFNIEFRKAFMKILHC

| Ki [1] [nM] | inhibition at 1 µM (5-HT1A) [%] | Ki (5-HT1A) [nM] | inhibition at 1 µM ([1]; at 10^-6 M, read-out: % displacement of specific binding, D2-like) [%] | Structure (SMILES) |
| --- | --- | --- | --- | --- |
| 249 | 71 |  |  | Cc1cc(C)c(S(=O)(=O)NCC2CCN(C[C@H]3COc4ccc(Cl)cc4O3)CC2)c(C)c1 [Example 21, (S)-N-{[1-(7-Chloro-1,4-benzodioxan-2-ylmethyl)-4-piperidyl]methyl}-2,4,6-trimethylbenzenesulphonamide] |
| 96.4 |  | 42 |  | COc1ccc(S(=O)(=O)NCC2CCN(C[C@H]3COc4ccc(Cl)cc4O3)CC2)cc1 [Example 9, (S)-(-)-N-{[1-(7-chloro-1,4-benzodioxan-2-ylmethyl)-4-piperidyl]-methyl}-4-methoxybenzenesulphonamide] |
| 301 | 91 |  |  | Cc1ccc(S(=O)(=O)NCC2CCN(C[C@H]3COc4ccc(Cl)cc4O3)CC2)cc1 [Example 33, (S)-N-{[1-(7-Chloro-1,4-benzodioxan-2-ylmethyl)-4-piperidyl]methyl}-4-methylbenzenesulphonamide] |
| 215 | 60 |  |  | O=S(=O)(NCC1CCN(C[C@H]2COc3ccc(Cl)cc3O2)CC1)c1cccc2ccccc12 [Example 31, (S)-N-{[1-(7-Chloro-1,4-benzodioxan-2-ylmethyl)-4-piperidyl]methyl}-1-naphthalenesulphonamide] |
| 88 | 87 |  |  | O=S(=O)(NCC1CCN(C[C@H]2COc3ccc(Cl)cc3O2)CC1)c1ccccc1 [Example 34, (S)-N-{[1-(7-Chloro-1,4-benzodioxan-2-ylmethyl)-4-piperidyl]methyl}benzene-sulphonamide] |
| 37.8 |  | 35 |  | O=S(=O)(NCC1CCN(C[C@H]2COc3ccc(Cl)cc3O2)CC1)c1ccc(F)cc1F [Example 7, (S)-(-)-N-{[1-(7-chloro-1,4-benzodioxan-2-ylmethyl)-4-piperidyl]methyl}-2,4-difluorobenzenesulphonamide] |
|  | 77 |  | 89 | O=S(=O)(NCC1CCN(C[C@H]2COc3cc4c(cc3O2)OCO4)CC1)c1cccc(Cl)c1Cl [Example 49, (S)-(-)-2,3-Dichloro-N-{[1-(^6,^7-methylenedioxy-1,4-benzodioxan-2-ylmethyl)-4-piperidyl]methyl}benzenesulphonamide] |
| 69.8 |  | 37 |  | O=S(=O)(NCC1CCN(C[C@H]2COc3ccc(Cl)cc3O2)CC1)c1ccc(F)cc1 [Example 5, (S)-(-)-N-{[1-(7-chloro-1,4-benzodioxan-2-ylmethyl)-4-piperidyl]methyl}-4-fluorobenzene-sulphonamide] |
| 48 |  | 16 |  | O=S(=O)(NCC1CCN(C[C@H]2COc3ccc(Br)cc3O2)CC1)c1ccc(F)cc1F [Example 47, (S)-(-)-N-{[1-(7-Bromo-1,4-benzodioxan-2-ylmethyl)-4-piperidyl]methyl}-2,4-difluorobenzenesulphonamide] |
